Measured values: patent US12528817B2, “Method of inhibiting kinase by mesylate salts of triazolopyrazine derivatives” (ABION Inc., priority 2022, dated 2026)
Several values for one entry are separate records, joined by “and”; a condition that tells them apart may be missing. Equal values may be shown once. Entries after “also recorded” stand apart in the source; their conditions may differ.

Legend:
[1] = Physical stability under accelerated aging conditions (AAC), HT-XRPD; conditions: for Form after AAC: 40° C./75% RH, 2 days (48 hours), HT-XRPD; for Physical stability after exposure to AAC: 40° C./75% RH for 2 days
Procedure: Upon completion of the aging time, the solids were separated from the liquid phases, dried under vacuum at 50° C. and analyzed by HT-XRPD. […] Subsequently, all the solids were exposed to accelerated aging conditions (AAC) at 40° C./75% RH for 48 hours and re-measured by HT-XRPD to test their physical stability.
(§1) HT-XRPD patterns were obtained using the Crystallics T2 high-throughput XRPD set-up. The plates were mounted on a Bruker General Area Detector Diffraction System (GADDS) equipped with a VANTEC-500 gas area detector corrected for intensity and geometric variations. The calibration of the measurement accuracy (peaks position) was performed using NIST SRM1976 standard (Corundum).
(§2) Data collection was carried out at room temperature using monochromatic Cu Kα radiation in the 2θ region between 1.5° and 41.5°, which is the most distinctive part of the XRPD pattern. The diffraction pattern of each well was collected in two 20 ranges (1.5°≤2θ≤21.5° for the first frame, and 19.5°≤2θ≤41.5° for the second) with an exposure time of 90 s for each frame. No background subtraction or curve smoothing was applied to the XRPD patterns. The carrier material used during HT-XRPD analysis was transparent to X-rays and contributed only slightly to the background.

[2] = DVS analysis (hygroscopicity, moisture sorption); assay type: physicochemical; conditions: for Change in mass at 80% RH / Change of mass in the range 40→95% RH / Water vapor uptake at 95% RH / Change in mass in the range 0→40% RH: 25° C.; for Solid form after DVS analysis: XRPD at end of DVS; for Hygroscopicity classification (European Pharmacopeia): based on change in mass at 80% RH; for Change of mass in the range 40→95% RH / Water vapor uptake at 95% RH: first sorption half-cycle; for Change in mass in the range 0→40% RH: last sorption half-cycle; for Reversibility of water uptake: sorption-desorption-sorption 40-95-0-40% RH
Procedure: Differences in hygroscopicity (moisture uptake) of the various forms of a solid material provided a measure of their relative stability at increasing relative humidity. Moisture sorption isotherms of small samples were obtained using a DVS-1 system from Surface Measurement Systems (London, UK); this instrument is suitable for use with as little as a few milligrams of sample, with an accuracy of 0.1 μg. The relative humidity was varied during sorption-desorption-sorption (40-95-0-40% RH) at a constant temperature of 25° C., typically with a hold time of 60 minutes per step (10% relative humidity step). At the end of the DVS experiment the sample was measured by XRPD.
The hygroscopicity was classified according to the European Pharmacopoeia Hygroscopicity classification.

[3] = Long-term stability study, water content by TGA/TGMS; assay type: physicochemical
Procedure: Mass loss due to solvent or water loss from the crystals was determined by TGA. […] The TGA/DSC 3+ was calibrated for temperature with samples of indium and aluminum. Samples (circa 2 mg) were weighed into 100 μL aluminum crucibles and sealed. The seals were pin-holed, and the crucibles heated in the TGA from 25 to 300° C. at a heating rate of 10° C./min. Dry N2 gas was used for purging.
The gases coming from the TGA samples were analyzed by a mass spectrometer Omnistar GSD 301 T2 (Pfeiffer Vacuum GmbH, Germany). The latter is a quadrupole mass spectrometer, which analyzes masses in the […] of 0-200 amu.

[4] = Long-term chemical stability study, API chemical purity by HPLC/LCMS; assay type: physicochemical
Procedure: Assay and purity assessment of the novel crystalline salts • Method name: S19061_01.MV • Sample: • Concentration: 0.3 mg/ml • Diluent: Acetonitrile/water (50/50)

[5] = Long-term physical stability study, solid form by HT-XRPD; assay type: physicochemical
Procedure: as §1, §2

[6] = Thermal stability study in solution (LCMS); assay type: physicochemical; conditions: for Area %: approx. 0.3 mg/mL
Procedure: A thermal stability study was performed on ABN-401 to investigate the chemical stability of the starting material in solution when exposed to elevated temperatures. Solutions of ABN-401 were prepared in acetone, 1,2-dimethoxyethane, and acetonitrile with a concentration of approximately 0.3 mg/mL. Solutions were left at RT for 1 hour and successively, two aliquots of each solution were taken and heated at 50° C. and 80° C. for one hour. All these solutions were analyzed by LCMS. Additionally, the samples kept at RT were remeasured by LCMS after 24 hours to check the chemical degradation over time.
Starting material characterization and purity assessment of the novel crystalline forms of the free base: • Method name: S19061_03.M • Sample: • Concentration: 0.3 mg/ml • Diluent: Acetonitrile

## CC1(C)[C@@H]2CC[C@@]1(CS(=O)(=O)O)C(=O)C2.CN1CCN(Cc2ccc(-c3cnc(N4CCOC(Cn5nnc6ncc(-c7cnn(C)c7)nc65)C4)nc3)cc2)CC1 (stereo in doubt) [Camp2]
[1]
  Form after AAC: Camp2
[2]
  Change in mass at 80% RH: 1.4%
  Solid form after DVS analysis: Camp4
  Hygroscopicity classification (European Pharmacopeia): slightly hygroscopic
  Change of mass in the range 40→95% RH: 14.1%
  Water vapor uptake at 95% RH: 15.6%
  Change in mass in the range 0→40% RH: 6.6%
  Reversibility of water uptake: irreversible
[3]; 25° C./60% RH, 1 month
  Mass loss attributed to water (TGA) after storage: 1.6%
[3]; 25° C./60% RH, 24 months
  Mass loss attributed to water (TGA) after storage: 1.9%
[3]; 40° C./75% RH, 1 month
  Mass loss attributed to water (TGA) after storage: 1.8%
[3]; 40° C./75% RH, 3 months
  Mass loss attributed to water (TGA) after storage: 7.1%
[3]; 40° C./75% RH, 15 months
  Mass loss attributed to water (TGA) after storage: 6.9%
[3]; 40° C./75% RH, 24 months
  Mass loss attributed to water (TGA) after storage: 6.7%
[4]; 25° C./60% RH, 1 month
  API chemical purity after storage: 99.8 % (area %)
[4]; 25° C./60% RH, 15 months
  API chemical purity after storage: 99.5 % (area %) and 97.3 % (area %) and 100 % (area %)
[4]; 25° C./60% RH, 24 months
  API chemical purity after storage: 100 % (area %)
[4]; 40° C./75% RH, 1 month
  API chemical purity after storage: 99.8 % (area %)
[4]; 40° C./75% RH, 15 months
  API chemical purity after storage: 93.7 % (area %) and 88.6 % (area %)
[4]; 40° C./75% RH, 24 months
  API chemical purity after storage: 88.6 % (area %)
[5]; 25° C./60% RH, 1 month
  Solid form (HT-XRPD) after storage: Camp2
[5]; 25° C./60% RH, 3 months
  Solid form (HT-XRPD) after storage: Camp2
[5]; 25° C./60% RH, 15 months
  Solid form (HT-XRPD) after storage: Camp2
[5]; 25° C./60% RH, 24 months
  Solid form (HT-XRPD) after storage: no solid form conversion; also recorded: Camp2
[5]; 40° C./75% RH, 1 month
  Solid form (HT-XRPD) after storage: Camp2
[5]; 40° C./75% RH, 3 months
  Solid form (HT-XRPD) after storage: solid form conversion of Camp2 to Camp4
[5]; 40° C./75% RH, 15 months
  Solid form (HT-XRPD) after storage: Camp4
[5]; 40° C./75% RH, 24 months
  Solid form (HT-XRPD) after storage: a mixture of a camsylate salt and Form E of the free base; also recorded: Camp3+E

## CN1CCN(Cc2ccc(-c3cnc(N4CCOC(Cn5nnc6ncc(-c7cnn(C)c7)nc65)C4)nc3)cc2)CC1 (centres unmarked) [ABN-401]
[3]; 25° C./60% RH, 1 month
  Mass loss attributed to water (TGA) after storage: 3.7%
[3]; 25° C./60% RH, 3 months
  Mass loss attributed to water (TGA) after storage: 4.1%
[3]; 25° C./60% RH, 15 months
  Mass loss attributed to water (TGA) after storage: 3.3%
[3]; 25° C./60% RH, 24 months
  Mass loss attributed to water (TGA) after storage: 5.3%
[3]; 40° C./75% RH, 1 month
  Mass loss attributed to water (TGA) after storage: 4.0%
[3]; 40° C./75% RH, 3 months
  Mass loss attributed to water (TGA) after storage: 4.4%
[3]; 40° C./75% RH, 15 months
  Mass loss attributed to water (TGA) after storage: 3.7%
[3]; 40° C./75% RH, 24 months
  Mass loss attributed to water (TGA) after storage: 5.2%
[6]; 1,2-dimethoxyethane, 1 h/50° C.
  Area %: 98.6%
[6]; 1,2-dimethoxyethane, 1 h/80° C.
  Area %: 97.7%
[6]; 1,2-dimethoxyethane, 1 h/RT
  Area %: 99.0%
[6]; 1,2-dimethoxyethane, 24 h/RT
  Area %: 98.8%
[6]; ACN, 1 h/50° C.
  Area %: 99.0%
[6]; ACN, 1 h/80° C.
  Area %: 98.7%
[6]; ACN, 1 h/RT
  Area %: 99.0%
[6]; ACN, 24 h/RT
  Area %: 98.1%
[6]; Acetone, 1 h/50° C.
  Area %: 99.0%
[6]; Acetone, 1 h/80° C.
  Area %: 99.0%
[6]; Acetone, 1 h/RT
  Area %: 98.8%
[6]; Acetone, 24 h/RT
  Area %: 98.5%
[6]; samples kept at 50° C. and 80° C. for one hour, acetone, 1,2-dimethoxyethane, acetonitrile
  Chemical degradation in solution: No significant chemical degradation
[4]; 25° C./60% RH, 24 months
  API chemical purity after storage: 87.2 % (area %)
[4]; 40° C./75% RH, 24 months
  API chemical purity after storage: 90.7 % (area %)

## CC1(C)[C@@H]2CC[C@@]1(CS(=O)(=O)O)C(=O)C2.CN1CCN(Cc2ccc(-c3cnc(N4CCOC(Cn5nnc6ncc(-c7cnn(C)c7)nc65)C4)nc3)cc2)CC1 (centres unmarked) [Camp1]
[1]
  Physical stability after exposure to AAC: physically stable
  Form after AAC: Camp1

## CN1CCN(Cc2ccc(-c3cnc(N4CCOC(Cn5nnc6ncc(-c7cnn(C)c7)nc65)C4)nc3)cc2)CC1.CS(=O)(=O)O (centres unmarked) [Mes1]
[1]
  Physical stability after exposure to AAC: physically stable
  Form after AAC: Mes1

## CN1CCN(Cc2ccc(-c3cnc(N4CCOC(Cn5nnc6ncc(-c7cnn(C)c7)nc65)C4)nc3)cc2)CC1.CS(=O)(=O)O.CS(=O)(=O)O (centres unmarked) [Mes2]
[1]
  Physical stability after exposure to AAC: physically stable
  Form after AAC: Mes2
[2]
  Change in mass at 80% RH: approximately 12.2%
  Solid form after DVS analysis: No change in the solid form
  Hygroscopicity classification (European Pharmacopeia): moderately hygroscopic
  Change of mass in the range 40→95% RH: 24.8%
  Water vapor uptake at 95% RH: 29.6%
  Change in mass in the range 0→40% RH: 4.6%
  Reversibility of water uptake: reversible
[3]; 25° C./60% RH, 1 month
  Mass loss attributed to water (TGA) after storage: 8.0%
[3]; 25° C./60% RH, 3 months
  Mass loss attributed to water (TGA) after storage: 7.7%
[3]; 25° C./60% RH, 15 months
  Mass loss attributed to water (TGA) after storage: 6.5%
[3]; 40° C./75% RH, 1 month
  Mass loss attributed to water (TGA) after storage: 10.8%
[3]; 40° C./75% RH, 3 months
  Mass loss attributed to water (TGA) after storage: 11.2%
[3]; 40° C./75% RH, 15 months
  Mass loss attributed to water (TGA) after storage: 9.6%
[3]; 40° C./75% RH, 24 months
  Mass loss attributed to water (TGA) after storage: ~12.0%
[4]; 25° C./60% RH, 1 month
  API chemical purity after storage: 100 % (area %) and 99.7 % (area %)
[4]; 25° C./60% RH, 3 months
  API chemical purity after storage: 99.6 % (area %)
[4]; 25° C./60% RH, 15 months
  API chemical purity after storage: 100 % (area %)
[4]; 25° C./60% RH, 24 months
  API chemical purity after storage: 99.6 % (area %)
[4]; 40° C./75% RH, 1 month
  API chemical purity after storage: 99.7 % (area %) and 97.2 % (area %)
[4]; 40° C./75% RH, 3 months
  API chemical purity after storage: 99.5 % (area %)
[4]; 40° C./75% RH, 15 months
  API chemical purity after storage: 100 % (area %)
[4]; 40° C./75% RH, 24 months
  API chemical purity after storage: 100 % (area %)
[5]; 25° C./60% RH, 1 month
  Solid form (HT-XRPD) after storage: Mes2
[5]; 25° C./60% RH, 3 months
  Solid form (HT-XRPD) after storage: no significant differences in the powder patterns and Mes2
[5]; 25° C./60% RH, 15 months
  Solid form (HT-XRPD) after storage: additional diffraction peaks were detected at 15.1 and 16.5° 2θ; also recorded: Mes2+peaks
[5]; 25° C./60% RH, 24 months
  Solid form (HT-XRPD) after storage: Mes6
[5]; 40° C./75% RH, 1 month
  Solid form (HT-XRPD) after storage: Mes2
[5]; 40° C./75% RH, 3 months
  Solid form (HT-XRPD) after storage: showed these additional peaks; also recorded: Mes2+peaks
[5]; 40° C./75% RH, 15 months
  Solid form (HT-XRPD) after storage: Mes4 and Mes4+peaks
[5]; 40° C./75% RH, 24 months
  Solid form (HT-XRPD) after storage: Mes6

## CN1CCN(Cc2ccc(-c3cnc(N4CCOC(Cn5nnc6ncc(-c7cnn(C)c7)nc65)C4)nc3)cc2)CC1.CS(=O)(=O)O.CS(=O)(=O)O.CS(=O)(=O)O (centres unmarked) [Mes3]
[1]
  Physical stability after exposure to AAC: became deliquescent
  Form after AAC: Mes3 (deliquescent)
